Assay results as given in patent US10782295B2, “Cysteine-reactive ligand discovery in proteomes” (THE SCRIPPS RESEARCH INSTITUTE, priority 2013, dated 2020).

Legend:
IFIT3 = molecular target: T1, IFIT3 (Homo sapiens, UniProt O14879); experiment: competitive isoTOP-ABPP, MDA-MB-231 soluble proteome; assay type: binding; details: 100 μM LDE, 60 min; peptide GLNPLNAYSDLAEFLETEC*YQTPFNK
T1 construct: directly in native proteomes; endogenous in cells; host or cells: MDA-MB-231
T1 sequence (O14879 1-490): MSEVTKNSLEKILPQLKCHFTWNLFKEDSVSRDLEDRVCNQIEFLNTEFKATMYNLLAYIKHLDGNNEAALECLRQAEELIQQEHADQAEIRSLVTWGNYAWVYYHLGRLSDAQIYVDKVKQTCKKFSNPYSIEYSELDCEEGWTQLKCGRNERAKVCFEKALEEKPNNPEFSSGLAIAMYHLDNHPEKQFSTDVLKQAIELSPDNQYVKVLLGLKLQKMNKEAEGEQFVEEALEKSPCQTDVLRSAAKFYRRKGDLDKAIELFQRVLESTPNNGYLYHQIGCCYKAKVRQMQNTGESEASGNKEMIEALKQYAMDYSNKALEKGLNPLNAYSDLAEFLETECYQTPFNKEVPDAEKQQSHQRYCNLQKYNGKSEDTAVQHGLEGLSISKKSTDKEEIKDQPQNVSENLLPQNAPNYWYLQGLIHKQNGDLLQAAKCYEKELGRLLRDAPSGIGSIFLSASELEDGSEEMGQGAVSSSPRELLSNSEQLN
Procedure: (§1) Here, we envisioned that isoTOP-ABPP could be advanced to discover and quantify reactions between cysteines in proteomes and any electrophilic compound. In this advanced, ‘competitive’ version of isoTOP-ABPP (FIG. 1a), a proteome is treated with an electrophile (experimental sample) or DMSO (control sample). Both proteomic samples are then labeled with the IA probe and conjugated by CuAAC to light and heavy azide-biotin tags, respectively. The light and heavy samples are then mixed and subjected to our described isoTOP-ABPP protocol for enrichment, identification, and quantification of IA-labeled cysteines^30. Electrophile-modified cysteines are quantified by measuring the MS1 chromatographic peak ratios (R values) for heavy (DMSO-treated) over light (electrophile-treated) samples, with higher R values reflecting greater sensitivity to the electrophile. In this format, competitive isoTOP-ABPP can assay electrophiles against 1000+ cysteines in parallel directly in native proteomes without requiring any chemical modification to the electrophiles themselves.
(§2) Competitive isoTOP-ABPP experiments were performed in quadruplicate using the soluble proteome of the human breast cancer cell line MDA-MB-231 cell line. Proteomes were treated with 100 μM HNE, 15d-PGJ2, or 2-HD, for 60 minutes, followed by the IA-probe (100 μM, 60 min) A total of ˜1400 cysteine reactivities were quantified across the aggregate data set, with at least 900 cysteine reactivities quantified for each LDE (FIG. 2a) more than 750 of which were quantified for all the three electrophiles.
(§3) HNE was purchased from EMD biosciences, 15d-PGJ2 was purchased from Cayman Chemicals and 2-HD was purchased from Santa Cruz Biotechnology. Proteome samples were diluted to a 4 mg protein/mL solution in PBS. For each profiling experiment, one aliquot of the proteome sample (0.5 mL) was treated with 100 μM of LDE using 5 μL of a 10 mM stock and the other aliquot was treated with 5 μL of either ethanol (for HNE and 15d-PGJ2) or DMSO (for 2-HD) as control. For the concentration-dependent profiling experiments using HNE, aliquots of the proteomes (0.5 mL each) were treated with 5, 10, 50, 100 and 500 μM of HNE using 5 μL of 0.5, 1.0, 5, 10 and 50 mM of stock solution, respectively. After 60 minutes of treatment at room temperature, both the LDE-treated and control aliquots were passed through a NAP-5 Sephadex column (GE healthcare) to remove any unreacted LDE. The volume of each aliquot was increased to 1 mL with the concentration at 2 mg/mL after this step.
(§4) Each of the control and LDE-treated proteome samples (˜2 mg protein/mL in 1 mL volume) was treated with 100 μM of IA-probe using 10 μL of a 10 mM stock in DMSO. The labeling reactions were incubated at room temperature for 1 hour. Click chemistry (acetylene-azide cycloaddition) was performed by the addition of 100 μM of either the Heavy-TEV-Tag (for the control sample) or Light-TEV-Tag (for the LDE-treated sample) (20 μL of a 5 mM stock), 1 mM TCEP (fresh 50× stock in water), 100 μM ligand (17× stock in DMSO:t-Butanol 1:4) and 1 mM CuSO4 (50× stock in water). Samples were allowed to react at room temperature for 1 hour. After the click chemistry step, the light and heavy-labeled samples were mixed together and centrifuged (5900×g, 4 min, 4° C.) to pellet the precipitated proteins.
(§5) The pellets were washed twice in cold MeOH, after which the pellet was solubilized in PBS containing 1.2% SDS via sonication and heating (5 min, 80° C.). Samples were subjected to streptavidin enrichment of probe-labeled proteins, sequential on-bead trypsin and TEV digestion, and liquid chromatography-mass spectrometry (LC-MS) analysis according to the published isoTOP-ABPP protocol^30.
(§6) IA-probe labeled peptides were identified by SEQUEST2 and DTASelect3, and the quantification of heavy/light ratios (isoTOP-ABPP ratios, R) was performed by an in-house software (CIMAGE) as previously described. […]

MAP2K6 = molecular target: T2, MAP2K6 (Homo sapiens, UniProt P52564); experiment: as above; assay type: binding; details: 100 μM LDE, 60 min; peptide MC*DFGISGYLVDSVAK
T2 construct: directly in native proteomes; endogenous in cells; host or cells: MDA-MB-231
T2 sequence (P52564 1-334): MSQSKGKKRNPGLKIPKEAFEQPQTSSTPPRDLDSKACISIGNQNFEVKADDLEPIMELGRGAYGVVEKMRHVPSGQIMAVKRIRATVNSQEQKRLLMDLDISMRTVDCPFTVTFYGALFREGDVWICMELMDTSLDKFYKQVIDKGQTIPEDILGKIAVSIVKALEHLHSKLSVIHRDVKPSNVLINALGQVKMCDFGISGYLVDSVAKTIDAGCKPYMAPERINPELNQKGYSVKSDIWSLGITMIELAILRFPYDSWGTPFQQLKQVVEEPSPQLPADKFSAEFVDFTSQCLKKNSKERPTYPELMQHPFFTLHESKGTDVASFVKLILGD
Procedure: as §1, §2, §3, §4, §5, §6

For `CCCCCCCCCCCCC/C=C/C=O` [2-HD, 2-trans-hexadecenal], the “R value (isoTOP-ABPP ratio heavy/light) for IA-labeled cysteine of IFIT3” value (IFIT3) was 1.23 and the “R value (isoTOP-ABPP ratio heavy/light) for IA-labeled cysteine of MAP2K6” value (MAP2K6) was 1.15.

`CCCCCC(O)/C=C/C=O` (stereo not drawn) [4-HNE, 4-Hydroxynonenal] was tested, and the “R value (isoTOP-ABPP ratio heavy/light) for IA-labeled cysteine of IFIT3” value (IFIT3) was 1.51 and the “R value (isoTOP-ABPP ratio heavy/light) for IA-labeled cysteine of MAP2K6” value (MAP2K6) was 1.9.

`CCCCC/C=C/C=C1/C(=O)C=C[C@@H]1C/C=C\CCCC(=O)O` [PGJ2, 15-deoxy-Δ12,14-prostaglandin J2] was tested, and the “R value (isoTOP-ABPP ratio heavy/light) for IA-labeled cysteine of IFIT3” value (IFIT3) was 9.43 and the “R value (isoTOP-ABPP ratio heavy/light) for IA-labeled cysteine of MAP2K6” value (MAP2K6) was 7.43.
